Source: US20090246212A1, “DEVELOPMENT OF METHOD FOR SCREENING FOR DRUG CAPABLE OF IMPROVING PRODUCTION OF REGULATORY T CELLS AND METHOD FOR PRODUCING REGULATORY T CELLS USING IMMUNOSUPPRESSIVE MACROLIDE ANTIBIOTIC” (KYOTO UNIVERSITY, priority 2005, published 2009)

Test system: CD45RA^+CD25^−CD4^+ T cell line
Experiment: Mixed lymphocyte reaction with trans-well, rapamycin-cultured CD45RA^+CD25^−CD4^+ T cell line
Format: cell-based, human
Conditions: rapamycin 20 nM from day 40
Procedure: CD45RA^+CD25^+CD4^+ T cells or CD45RA^+CD25^−CD4^+ T cells in human peripheral blood separated in the same manner as Example 1 (5×10̂4 cells/well) were stimulated with anti-human CD3 and CD28 conjugate beads in a ratio of 4 beads per cell in a 96-well round-bottomed culture plate containing 200 μl per well of a proliferation medium (AlyS505N (produced by Cell Science & Technology Institute) supplemented with 2% human AB serum) in the presence of human IL-2 (1000 U/ml, produced by Cell Science & Technology Institute). Rapamycin (20 nM, produced by Sigma) was added to the medium 40 days after the start of cultivation. Every 3 to 4 days, half of the medium was replaced with a fresh proliferation medium containing IL-2. If necessary, the cells were separated and repeatedly re-stimulated with anti-CD3/CD28 antibody conjugate beads every 10 to 14 days. Fifty days after the start of cultivation, the cells were collected and used for functional assay.
Total CD4^+ T cells in peripheral blood were isolated in the same manner as Example 1. […] The culture product was collected, and [3H] thymidine uptake was measured using 1450 Microbeta TriLux (Wallac).

Compound: CO[C@H]1C[C@@H]2CC[C@@H](C)[C@@](O)(O2)C(=O)C(=O)N2CCCC[C@H]2C(=O)O[C@H]([C@H](C)C[C@@H]2CC[C@@H](O)[C@H](OC)C2)CC(=O)[C@H](C)/C=C(\C)[C@@H](O)[C@@H](OC)C(=O)[C@H](C)C[C@H](C)/C=C/C=C/C=C/1C [rapamycin]
- T cell line's effect on proliferation of total CD4^+ T cells (conditions that allow cell contact): strongly suppressed
- suppression of the proliferation of total CD4^+ T cells by the T cell line (contact blocked with the trans-well): continued to suppress
